# Results published in patent US20030050242A1, “Protein polymerization inhibitors and methods of use” (priority 1999, published 2003).
# “And” between values parts separate entries of the source, which are not always exact repeats. Equal values may be shown once. Peptide text beside a SMILES is read from it.
# Columns and labels:
# [1] = target: T1, recombinant p24 (viral capsid protein) (Human immunodeficiency virus type 1 group M subtype B, UniProt P04591); test: dialysis-based binding assay with 14C-GPG-NH2; design: species or system HIV-1
# T1 construct: AIDS program, NCIB (gift)
# Method: (§1) To determine whether the peptide agents listed in Table 1 bound to the viral capsid protein p24, an in vitro binding assay was performed. As described previously, a dialysis-based binding assay was conducted using a dialysis membrane with a pore size of less than 10 kD. (Slide-A-Lyzer, Pierce). Fifty microliters of a 10 μM stock of the recombinant proteins p24, gp120 (gifts from the AIDS program, NCIB) and BSA (Sigma) were introduced into separate dialysis membranes and the proteins were dialyzed at 4° C. for 2 days against a 500 ml solution composed of 150 mM NaCl and 50 mM Tris-HCl, pH 7.4 buffer, and 27.5 μM of ^14C-GPG-NH2 (Amersham Ltd. UK). Subsequently, ten or five microliter aliquots of the dialyzed p24, gp 120, and BSA were removed and mixed with 3 ml of ReadySafe (Beckman) in a scintillation vial. The C^14 was then detected by scintillation counting.
# (§2) In Table 2, the results from a representative dialysis-based binding assay are provided. […] The amount of radioactive GPG-NH2 associated with p24 was 7.5 times greater than that present in the buffer.
# BSA = target: T2, BSA (Bos taurus, UniProt P02769); test: dialysis-based binding assay with 14C-GPG-NH2
# T2 construct: purchased Sigma
# Method: as §1, §2
# SIV = test: viral infection assay in H9 cells, reverse transcriptase (RT) activity in supernatant; format: cell-based; settings: summary of the experiments in H9 cells
# Method: (§3) Next, the ability of peptide agents to inhibit viral infection was evaluated. Accordingly, the peptide agents listed in Table 1 were used in several viral (e.g., HIV-1, HIV-2, and SIV) infection assays. […] Once inhibitory tripeptides were identified, more specific assays were conducted to determine the effect of varying concentrations of the selected tripeptides and combination treatments (e.g., the use of more than one modified tripeptide in combination).
# (§4) To monitor the replication of virus, reverse transcriptase (RT) activity in the supernatants was assayed using a commercially available Lenti-RT activity kit. (Cavidi Tech, Uppsala, Sweden). The amount of RT was determined with the aid of a regression line of standards. […] Syncytium formation was also monitored by microscopic examination.
# (§5) (Cavidi Tech). The amount of RT was determined with the aid of a regression line of standards.
# HIV-2 = test: as above; format: cell-based; settings: summary of the experiments in H9 cells
# Method: as §3, §4, §5
# recombinant gp120 = target: T3, recombinant gp120 (Human immunodeficiency virus type 1 group M subtype B, UniProt P03375); test: dialysis-based binding assay with 14C-GPG-NH2
# T3 construct: recombinant proteins p24, gp120 (gifts from the AIDS program, NCIB); AIDS program, NCIB (gift)
# Method: To determine whether the peptide agents listed in Table 1 bound to the viral capsid protein p24, an in vitro binding assay was performed. As described previously, a dialysis-based binding assay was conducted using a dialysis membrane with a pore size of less than 10 kD. (Slide-A-Lyzer, Pierce). […] Subsequently, ten or five microliter aliquots of the dialyzed p24, gp 120, and BSA were removed and mixed with 3 ml of ReadySafe (Beckman) in a scintillation vial. The C^14 was then detected by scintillation counting.
# HIV-1 = settings: summary of Experiments 1-6
# Method: as §3
# HIV-1 SF-2 virus = test: electron microscopy of HIV-1 particles from infected HUT78 cells; format: cell-based; settings: cells fixed day 14
# Method: Evidence that peptide agents inhibit or prevent viral capsid protein polymerization and, thus, proper nucleocapsid assembly was obtained by performing electron microscopy on HIV-1 particles that were contacted with a modified small peptide. In this set of experiments, HUT78 cells were infected with HIV-1 SF-2 virus at 300TCID50 for 1 hr at 37° C. Subsequently, the infected cells were washed and pelleted 3 times. […] GPG-NH2 was then added into the cell cultures 3, 5 or 7 days post infection at concentration of 1 μm or 10 μM. A control sample was administered 0.5 μM Ritonavir (a protease inhibitor). The cells were cultured until day 14, at which point, the cells were fixed in 2.5% glutaraldehyde by conventional means. The fixed cells were then post-fixed in 1% OSO4 and were dehydrated, embedded with epoxy resins, and the blocks were allowed to polymerize. Epon sections of virus infected cells were made approximately 60-80 nm thin in order to accommodate the width of the nucleocapsid. The sections were mounted to grids stained with 1.0% uranyl acetate and were analyzed in a Zeiss CEM 902 microscope at an accelerating voltage of 80 kV. The microscope was equipped with a spectrometer to improve image quality and a liquid nitrogen cooling trap was used to reduce beam damage. The grids having sections of control and GPG-NH2 incubated cells were examined in several blind studies.
# (See FIG. 1). […]
# [2] = target: major capsid protein (p24) of HIV-1 (HIV-1) (UniProt P04591)
# [3] = target: major capsid protein (p24) of HIV-1 (HIV-1) (UniProt P04591); remark: listed apart in the source
# [4] = target: viral capsid protein (p24) of HIV-2 (HIV-2)
# [5] = target: viral capsid protein (p24) of SIV (SIV)
# [6] = target: major capsid protein (p24) of HIV-1 (HIV-1) (UniProt P04591); remark: listed apart in the source
# [7] = 27.5 μM 14C-GPG-NH2, dialysis 4° C. 2 days, dialysis buffer 1.816
# [8] = radioactivity relative to dialysis buffer
molecule,measurement,setting,value
"NCC(=O)N1CCC[C@H]1C(=O)NCC(N)=O [GPG-NH2, glycyl-prolyl-glycine amide] (H-Gly-Pro-Gly-NH2)","μCi/ml, sample p24",[1]; [7],13.712 μCi/ml
same,"times buffer, sample p24",[1]; [8],7.5 times buffer and 7.551 times buffer
same,"μCi/ml, sample BSA",BSA; [7],1.674 μCi/ml
same,radioactive GPG-NH2 associated with BSA over the amount in the dialysis buffer,BSA; in words,no appreciable amount
same,"times buffer, sample BSA",BSA; [8],0.922 times buffer
same,"effect on SIV infection, in words",SIV,inhibit or prevent HIV-2 and SIV infection
same,"effect on HIV-2 infection, in words",HIV-2,inhibit or prevent HIV-2 and SIV infection
same,"μCi/ml, sample gp120",recombinant gp120; [7],1.745 μCi/ml
same,radioactive GPG-NH2 associated with gp120 over the amount in the dialysis buffer,recombinant gp120; in words,no appreciable amount
same,"times buffer, sample gp120",recombinant gp120; [8],0.961 times buffer
same,"effect on HIV-1 infection, in words",HIV-1,inhibited and/or prevented HIV-1 infection
same,capsid/nucleocapsid morphology of HIV-1 particles,"HIV-1 SF-2 virus; 1 μM or 10 μM added 3, 5 or 7 days post infection",discernable capsid structures that are distinct from the Ritonavir-treated particles
"CC(C)c1nc(CN(C)C(=O)N[C@H](C(=O)N[C@@H](Cc2ccccc2)C[C@H](O)[C@H](Cc2ccccc2)NC(=O)OCc2cncs2)C(C)C)cs1 [Ritonavir, reference compound]",capsid/nucleocapsid morphology of HIV-1 particles,HIV-1 SF-2 virus; 0.5 μM control sample,malformed structures that did not have a discernable nucleocapsid
GPG-NH2 + GKG-NH2 + CQG-NH2 (pool or library),"p24 in the supernatants of infected H9 cells, Day 14 HIV-1, reduction (%)",[2],100%
Gly-Pro-Gly-NH2 (peptide),"p24 production of infected HUT78 cells (HIV-1 p24 ELISA), Day 7 HIV-1, reduction (%), peptide at 100 µM",[3],97%
same,"reverse transcriptase (RT) activity in the supernatants, Day 10 RT (OD)",[4],0.145 OD
same,"reverse transcriptase (RT) activity in the supernatants, Day 10 RT (OD)",[5],0.103 OD
same,"reverse transcriptase (RT) activity in the supernatants, Day 10 RT (OD)",[6],0.074 OD
